Measurements as given in patent publication US7365098B2, “N'-cyano-N-methyl-imidamide derivatives” (Bayer CropScience AG, priority 2002, dated 2008).

What was measured:
[1] = logP determination by HPLC on reversed-phase column (EEC-Directive 79/831 Annex V.A8); type: physicochemical; settings: reversed-phase C 18, 43° C., acidic range (0.1% aqueous phosphoric acid/acetonitrile gradient); for chromatographic logP: reversed-phase HPLC column (C 18)
Protocol: The logP values given in table 1 were determined in accordance with EEC-Directive 79/831 Annex V.A8 by HPLC (High Performance Liquid Chromatography) on a reversed-phase column (C 18). Temperature: 43° C. Mobile phases for the determination in the acidic range: 0.1% aqueous phosphoric acid, acetonitrile; linear gradient from 10% acetonitrile to 90% acetonitrile. Calibration was carried out using unbranched alkan-2-ones (having 3 to 16 carbon atoms) whose logP values are known (determination of the lopP values by the retention times using linear interpolation between two successive alkanones).

Meloidogyne incognita = test: Meloidogyne test (gall formation on lettuce roots); type: in vivo; settings: for nematizidal activity (formation of galls): Meloidogyne incognita egg/larvae, lettuce in sand, result in words
Protocol: • Solvent: 7 parts by weight of dimethylformamide • Emulsifier: 2 parts by weight of alkylaryl polyglycol ether To produce a suitable preparation of active compound, 1 part by weight of active compound is mixed with the stated amount of solvent and emulsifier, and the concentrate is diluted with water to the desired concentration. Containers are filled with sand, solution of active compound, Meloidogyne incognita egg/larvae suspension and lettuce seeds. The lettuce seeds germinate and the plants develop. On the roots, galls are formed. After the desired period of time, the nematizidal activity is the determined in percent by the formation of galls. 100% means that no galls were found; 0% means that the number of galls on the treated plants corresponds to that of the untreated control. […] The efficacy of the compounds is stated as kill rate in %.

Spodoptera frugiperda = Spodoptera frugiperda test (dipped cabbage leaves); type: in vivo; settings: Spodoptera frugiperda caterpillars on cabbage leaves; result in words
Protocol: [table] To produce a suitable preparation of active compound, 1 part by weight of active compound is mixed with the stated amount of solvent and emulsifier, and the concentrate is diluted with water to the desired concentration. Cabbage leaves (Brassica oleracea) are treated by being dipped into the preparation of active compound of the desired concentration and are populated with caterpillars of the Heerwurms (Spodoptera frugiperda) while the leaves are still moist. After the desired period of time, the kill in % is determined. 100% means that all caterpillars have been killed. 0% means that none of the caterpillars have been killed.

Phaedon cochleariae = test: Phaedon larvae test (dipped cabbage leaves); type: in vivo; settings: Phaedon cochleariae larvae on cabbage leaves; result in words
Protocol: • Solvent: 7 parts by weight of dimethylformamide • Emulsifier: 2 parts by weight of alkylaryl polyglycol ether To produce a suitable preparation of active compound, 1 part by weight of active compound is mixed with the stated amounts of solvent and emulsifier, and the concentrate is diluted with emulsifier-containing water to the desired concentration. Cabbage leaves (Brassica oleracea) are treated by being dipped into the preparation of active compound of the desired concentration and are populated with larvae of the mustard beetle (Phaedon cochleariae) while the leaves are still moist. After the desired period of time, the kill in % is determined. 100% means that all beetle larvae have been killed. 0% means that none of the beetle larvae have been killed.

SMILES: CC/C(=N\C#N)NC(C)c1ccc(Cl)cc1Cl (stereo not drawn) [Example 1, N′-Cyano-N-[1-(2,4-dichlorophenyl)ethyl]propaneimidamide]
- chromatographic logP [1]: 2.56

SMILES: CC/C(=N\C#N)N(C)C(C)c1ccc(Cl)cc1Cl (stereo not drawn) [Example 2, N′-Cyano-N-[1-(2,4-dichlorophenyl)ethyl]-N-methylpropaneimidamide]
- melting point: 148 °C
- chromatographic logP [1]: 2.8

SMILES: C/C(=N\C#N)N(C)C(C)c1ccc(Cl)cc1F (stereo not drawn) [Example 3]
- nematizidal activity (formation of galls) (Meloidogyne incognita): highly effective

SMILES: CC/C(=N\C#N)N(C)C(C)c1ccc(Cl)cc1F (stereo not drawn) [Example 4]
- nematizidal activity (formation of galls) (Meloidogyne incognita): highly effective

SMILES: CC/C(=N\C#N)N(C)C(C)c1cc(F)c(Cl)cc1F (stereo not drawn) [Example 5]
- kill of caterpillars (Spodoptera frugiperda): highly effective
- nematizidal activity (formation of galls) (Meloidogyne incognita): highly effective

SMILES: C/C(=N\C#N)N(C)C(C)c1cc(F)c(Cl)cc1F (stereo not drawn) [Example 6]
- nematizidal activity (formation of galls) (Meloidogyne incognita): highly effective

SMILES: C/C(=N\C#N)N(C)C(C)c1ccc(Cl)c(F)c1 (stereo not drawn) [Example 7]
- chromatographic logP [1]: 2.4
- nematizidal activity (formation of galls) (Meloidogyne incognita): highly effective

SMILES: CC/C(=N\C#N)N(C)C(C)c1ccc(Cl)c(F)c1 (stereo not drawn) [Example 8]
- chromatographic logP [1]: 2.61
- nematizidal activity (formation of galls) (Meloidogyne incognita): highly effective

SMILES: CC/C(=N\C#N)N(C)C(C)c1cc(F)c(Cl)cc1Cl (stereo not drawn) [Example 9]
- kill of caterpillars (Spodoptera frugiperda): highly effective
- nematizidal activity (formation of galls) (Meloidogyne incognita): highly effective

SMILES: CC/C(=N\C#N)N(C)[C@@H](C)c1ccc(Cl)cc1F [Example 10]
- chromatographic logP [1]: 2.55
- nematizidal activity (formation of galls) (Meloidogyne incognita): highly effective

SMILES: CC/C(=N\C#N)N(C)[C@H](C)c1ccc(Cl)cc1F [Example 11]
- chromatographic logP [1]: 2.55
- nematizidal activity (formation of galls) (Meloidogyne incognita): highly effective

SMILES: CC/C(=N\C#N)N(C)[C@@H](C)c1cc(F)c(Cl)cc1F [Example 12]
- chromatographic logP [1]: 2.59
- nematizidal activity (formation of galls) (Meloidogyne incognita): highly effective

SMILES: CC/C(=N\C#N)N(C)[C@H](C)c1cc(F)c(Cl)cc1F [Example 13]
- chromatographic logP [1]: 2.59
- nematizidal activity (formation of galls) (Meloidogyne incognita): highly effective

SMILES: C/C(=N\C#N)N(C)C(C)c1ccc(Cl)c(Cl)c1 (stereo not drawn) [Example 14]
- chromatographic logP [1]: 2.68
- nematizidal activity (formation of galls) (Meloidogyne incognita): highly effective

SMILES: CC/C(=N\C#N)N(C)C(C)c1ccc(Cl)c(Cl)c1 (stereo not drawn) [Example 15]
- chromatographic logP [1]: 2.9
- nematizidal activity (formation of galls) (Meloidogyne incognita): highly effective

SMILES: CC/C(=N\C#N)N(C)C(C)c1cc(F)c(F)cc1F (stereo not drawn) [Example 16]
- chromatographic logP [1]: 2.31

SMILES: C/C(=N\C#N)N(C)C(C)c1ccc(Cl)cc1Cl (stereo not drawn) [Example 17]
- chromatographic logP [1]: 2.58
- nematizidal activity (formation of galls) (Meloidogyne incognita): highly effective

SMILES: CC/C(=N\C#N)N(C)C(C)c1ccc(Cl)c(Cl)c1Cl (stereo not drawn) [Example 18]
- nematizidal activity (formation of galls) (Meloidogyne incognita): highly effective

SMILES: C/C(=N\C#N)N(C)C(C)c1cc(Cl)c(Cl)cc1Cl (stereo not drawn) [Example 19]
- chromatographic logP [1]: 2.9
- kill of caterpillars (Spodoptera frugiperda): highly effective
- kill of beetle larvae (Phaedon cochleariae): highly effective
- nematizidal activity (formation of galls) (Meloidogyne incognita): highly effective

SMILES: CC/C(=N\C#N)N(C)C(C)c1cc(Cl)c(Cl)cc1Cl (stereo not drawn) [Example 20]
- chromatographic logP [1]: 3.18
- nematizidal activity (formation of galls) (Meloidogyne incognita): highly effective

SMILES: CC/C(=N\C#N)N(C)C(C)c1ccc(Cl)c(Br)c1 (stereo not drawn) [Example 21]
- chromatographic logP [1]: 2.94

SMILES: CC/C(=N\C#N)N(C)C(C)c1c(F)cccc1Cl (stereo not drawn) [Example 22]
- chromatographic logP [1]: 2.19
- nematizidal activity (formation of galls) (Meloidogyne incognita): highly effective

SMILES: CC/C(=N\C#N)N(C)C(C)c1c(F)cccc1Cl (stereo not drawn) [Example 23]
- logP [1]: logP: 2.40
- nematizidal activity (formation of galls) (Meloidogyne incognita): highly effective

SMILES: C/C(=N\C#N)N(C)C(C)c1cc(Cl)ccc1Cl (stereo not drawn) [Example 24]
- chromatographic logP [1]: 2.46
- nematizidal activity (formation of galls) (Meloidogyne incognita): highly effective

SMILES: CC/C(=N\C#N)N(C)C(C)c1ccc(Br)c(Cl)c1 (stereo not drawn) [Example 25]
- chromatographic logP [1]: 2.94
- nematizidal activity (formation of galls) (Meloidogyne incognita): highly effective

SMILES: C/C(=N\C#N)N(C)C(C)c1ccc(F)c(F)c1 (stereo not drawn) [Example 26]
- chromatographic logP [1]: 2.09
- nematizidal activity (formation of galls) (Meloidogyne incognita): highly effective

SMILES: CC/C(=N\C#N)N(C)C(C)c1ccc(F)c(F)c1 (stereo not drawn) [Example 27]
- chromatographic logP [1]: 2.32
- nematizidal activity (formation of galls) (Meloidogyne incognita): highly effective

SMILES: C/C(=N\C#N)N(C)C(C)c1cccc(Cl)c1Cl (stereo not drawn) [Example 28]
- chromatographic logP [1]: 2.37
- nematizidal activity (formation of galls) (Meloidogyne incognita): highly effective

SMILES: CC/C(=N\C#N)N(C)C(C)c1cccc(Cl)c1Cl (stereo not drawn) [Example 29]
- chromatographic logP [1]: 2.59
- nematizidal activity (formation of galls) (Meloidogyne incognita): highly effective

SMILES: CC/C(=N\C#N)N(C)C(C)c1cc(F)c(Br)cc1F (stereo not drawn) [Example 30]
- chromatographic logP [1]: 2.66

SMILES: CC/C(=N\C#N)N(C)C(C)c1ccc(Cl)cc1Cl (stereo not drawn) [drawing 44]
- efficacy stated as kill rate in % (Meloidogyne incognita; 20 ppm active compound): 20 ppm: 100%

SMILES: CC/C(=N\C#N)NC(C)c1ccc(Cl)cc1Cl (stereo not drawn) [drawing 45, reference compound]
- efficacy stated as kill rate in % (Meloidogyne incognita; 20 ppm active compound): 20 ppm: 0%

SMILES: CC/C(=N\C#N)N(C)C(C)c1ccc(Cl)c(F)c1 (stereo not drawn) [drawing 46]
- efficacy stated as kill rate in % (Meloidogyne incognita; 4 ppm active compound): 4 ppm: 100%

SMILES: C/C(=N\C#N)N(C)C(C)c1ccc(Cl)cc1Cl (stereo not drawn) [drawing 48]
- efficacy stated as kill rate in % (Meloidogyne incognita; 4 ppm active compound): 4 ppm: 100%

SMILES: CC/C(=N\C#N)NC(C)c1ccc(Cl)c(F)c1 (stereo not drawn) [reference compound]
- efficacy stated as kill rate in % (Meloidogyne incognita; 4 ppm active compound): 4 ppm: 0%

SMILES: C/C(=N\C#N)NC(C)c1ccc(Cl)cc1Cl (stereo not drawn) [reference compound]
- efficacy stated as kill rate in % (Meloidogyne incognita; 5 ppm active compound): 5 ppm: 0%
